The record followed here is ChEMBL document CHEMBL1201862, “PubChem BioAssay data set” (2004).

Active and inactive are the calls of the source. Bounds are passed on as bounds.

Tested on in one experiment: not listed separately
In words: Luminescence Cell-Based Dose Confirmation HTS to Identify Activators of 5'UTR Stem-Loop Driven Alpha-Synuclein mRNA Translation in H4 Neuroglioblastoma Cells. [Related pubchem assays: 1829 (Project Summary), 1814 (Primary HTS)]. The class given is functional.
Settings: not given
As for `COCc1nc(-c2ccc(-c3ccc(C)cc3)nc2OC)no1`, the EC50 (as a rule, the concentration at which the effect is half-maximal) is > 120 µM (not active). With `C/C(=N\NC(=O)c1c(Cl)cnn1C)c1ccc(NC(=O)c2ccc(Br)o2)cc1`, the EC50 is 6.11 µM (active).

Another experiment concerns H4. The experiment can be described thus: Luminescence Cell-Based Dose Response HTS to Identify Activators of 5'UTR Stem-Loop Driven Prion Protein mRNA Translation in H4 Neuroglioblastoma Cells. [Related pubchem assays: 1829 (Project Summary), 1814 (Primary HTS)]. Type of experiment: functional. As to conditions: Homo sapiens.
As to `COCc1nc(-c2ccc(-c3ccc(C)cc3)nc2OC)no1`, the EC50 was 14.2 µM (active). Still for that read-out and setting: to `C/C(=N\NC(=O)c1c(Cl)cnn1C)c1ccc(NC(=O)c2ccc(Br)o2)cc1` belongs 28.4 µM (active).

Tested on in a further experiment: not listed separately
The experiment can be described thus: non-specific 3'UTR reporter inhibition in Clone20-Shn3RL – cell-based, Renilla luciferase, cherry-picked, counter-screen for Shn3 inhibitor project, dose response (AID 624133). Type of experiment: functional.
Settings: not given
On the technique in general: The purpose of a counterscreen is to sort out artefacts and off-target activity.
As to `CC/C(=C/c1ccccc1)c1cccc2[nH]c3c(OC)cccc3c12`, the AC50 – broadly, the concentration giving half of the maximal activity seen – is 19 µM (active). On to `N#Cc1cc(-c2ccccc2)[nH]c1-c1nccc2ccccc12`, for which the AC50 was 9.62 µM (active).

Another experiment addresses T1, Streptokinase A (Streptococcus pyogenes serotype M1, UniProt P10520).
T1 sequence (P10520 whole entry): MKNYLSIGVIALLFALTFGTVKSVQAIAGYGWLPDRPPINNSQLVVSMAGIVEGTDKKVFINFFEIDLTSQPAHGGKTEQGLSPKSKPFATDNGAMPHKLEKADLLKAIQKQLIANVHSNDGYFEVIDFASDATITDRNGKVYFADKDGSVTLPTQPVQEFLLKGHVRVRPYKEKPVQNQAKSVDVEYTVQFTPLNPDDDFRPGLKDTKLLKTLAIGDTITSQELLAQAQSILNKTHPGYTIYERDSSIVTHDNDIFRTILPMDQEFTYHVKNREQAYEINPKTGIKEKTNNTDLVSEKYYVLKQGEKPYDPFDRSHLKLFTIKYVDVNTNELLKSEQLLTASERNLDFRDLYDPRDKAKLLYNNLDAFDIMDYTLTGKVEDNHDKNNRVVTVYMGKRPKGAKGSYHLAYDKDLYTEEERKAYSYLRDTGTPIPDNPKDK
The experiment can be described thus: viability-normalized secreted streptokinase activity reduction – plasminogen activation absorbance, OD405, dose response (AID 1914).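 Further: secreted streptokinase activity via plasminogen activation per viability signal from cell pellet.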 The class given is functional, Streptococcus pyogenes M1 GAS.
Settings: not given
Consider `CC/C(=C/c1ccccc1)c1cccc2[nH]c3c(OC)cccc3c12`, for which the concentration for a half-maximal effect (EC50) was 19.6 µM (active).

Another experiment concerns the target T2, Rac GTPase-activating protein 1 (Homo sapiens, UniProt Q9H0H5).
T2 sequence (Q9H0H5 whole entry): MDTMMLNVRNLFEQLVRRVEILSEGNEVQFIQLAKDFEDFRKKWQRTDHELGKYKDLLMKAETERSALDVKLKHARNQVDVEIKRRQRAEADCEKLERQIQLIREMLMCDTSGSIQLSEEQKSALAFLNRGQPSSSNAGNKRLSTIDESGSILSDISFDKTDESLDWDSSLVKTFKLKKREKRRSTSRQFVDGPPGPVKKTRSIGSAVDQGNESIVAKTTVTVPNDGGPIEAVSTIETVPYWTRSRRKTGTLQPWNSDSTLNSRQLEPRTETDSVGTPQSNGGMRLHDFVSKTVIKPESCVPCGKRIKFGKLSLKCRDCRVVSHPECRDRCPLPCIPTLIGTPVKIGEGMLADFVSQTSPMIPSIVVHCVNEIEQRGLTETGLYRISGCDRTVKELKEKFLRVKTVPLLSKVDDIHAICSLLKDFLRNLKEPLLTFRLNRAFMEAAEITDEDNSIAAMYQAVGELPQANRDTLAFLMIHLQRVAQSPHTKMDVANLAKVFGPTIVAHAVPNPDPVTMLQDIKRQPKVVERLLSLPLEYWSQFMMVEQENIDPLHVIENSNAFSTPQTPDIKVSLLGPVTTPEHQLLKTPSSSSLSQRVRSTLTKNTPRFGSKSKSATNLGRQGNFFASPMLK
In words: blockers of MgcRacGAP-driven Rac1 GTP hydrolysis – biochemical, ADP Hunter fluorescence, primary and confirmatory, confirmation (AID 624330). The class given is functional.
Settings: not given
On to `O=C(N/N=C/c1ccc(O)cc1)c1cccc(C(F)(F)F)c1`, for which the IC50 (usually the midpoint of a concentration-inhibition curve) was 83.9 µM (active).

Tested on in the next experiment: not listed separately
The experiment can be described thus: viability of PTEN-deleted HCT116 cells – cell-based, HCT116 PTEN knockout, dose response (AID 1047).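 Further: HCT116 colon tumor cells with PTEN knocked out; cells exposed to compound for 60 hours before readout; potency for loss of cell viability measured by luminescence.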
Settings: not given
The class given is functional.
`O=C(Nc1ccc(-c2nc3ccccc3o2)cc1)c1cccnc1`: the EC50 was 23.3 µM (active). The same measure, in the same setting: then `CCCCNC(=O)Nc1c(C(=O)OC)[nH]c2ccc(C)cc12`, with 37.7 µM (active).

The test system of another experiment is Streptococcus. The experiment can be described thus: GAS UMAA2166 growth inhibition – luminescence, BacTiterGlo, counter-screen for streptokinase expression inhibitor project, dose response (AID 1915).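 Further: potency for reduction of bacterial viability or growth.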 The class given is functional, organism-based.
Settings: not given
Take `CC/C(=C/c1ccccc1)c1cccc2[nH]c3c(OC)cccc3c12`: the EC50 is 4.75 µM (active).

In a further experiment the test system is Streptococcus sp. 'group A'. The experiment can be described thus: Streptococcus pyogenes SK(-)GAS viability under kanamycin – luminescence, BacTiterGlo, confirmation, counter-screen for streptokinase expression inhibitor project, dose response (AID 1900).
Settings: not given
Type of experiment: functional, organism-based.
With `CC/C(=C/c1ccccc1)c1cccc2[nH]c3c(OC)cccc3c12`, the EC50 was 1.87 µM (active).

Tested on in another experiment: not listed separately
The experiment can be described thus: reduction of Shn3 3'UTR-driven luciferase in osteoblasts – cell-based, Clone20 osteoblasts, firefly luciferase, cherry-picked, dose response (AID 624132).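 Further: firefly luciferase luminescence from reporter carrying the Shn3 3'UTR in osteoblasts.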 The class given is functional.
Settings: not given
Consider `CC/C(=C/c1ccccc1)c1cccc2[nH]c3c(OC)cccc3c12`, for which the AC50 was 32.8 µM (active). The same measure, in the same setting: then `N#Cc1cc(-c2ccccc2)[nH]c1-c1nccc2ccccc12`, with 3.42 µM (active).

Tested on in the next experiment: not listed separately
The experiment can be described thus: loss of viability in HepG2 cells – cell-based, CellTiter-Glo, cherry-picked, cytotoxicity control for Shn3 inhibitor project, dose response (AID 624134). The class given is functional.
Settings: not given
As to `CC/C(=C/c1ccccc1)c1cccc2[nH]c3c(OC)cccc3c12`, the AC50 was > 70 µM (inactive). On the same count and under the same terms, to `N#Cc1cc(-c2ccccc2)[nH]c1-c1nccc2ccccc12` belongs 48.7 µM (active).

Tested on in another experiment: not listed separately
In words: cells. The class given is functional.
Settings: not given
Take `O=C(Oc1ccccc1)c1cc2ccccc2o1`: the IC50 is 18.4 µM (active).

On to `O=C(Oc1ccccc1)c1ccc(COC(=O)c2cnccn2)cc1`, for which the IC50 was 6.29 µM (active).

For `CCOC(=O)c1cc2cc3ccccc3cc2oc1=O`, the IC50 was 10.9 µM (active). In the case of `Cc1ccccc1N1CCN(Cc2ccc([N+](=O)[O-])o2)CC1`, the IC50 was 0.73 µM (active). On to `COC(=O)COc1cccc(NC(=O)c2ccc(Cl)cc2)c1`, for which the IC50 is 2.8 µM (active).

For `CCCCOC(=O)C1CCCC(C(=O)OCCCC)N1` (stereo not given), the 50% inhibitory concentration (IC50) is 16.6 µM (active). On the same count and under the same terms, to `O=C(N/N=C/c1ccc(O)cc1)c1cccc(C(F)(F)F)c1` belongs 38.6 µM (active).

Tested on in a further experiment: not listed separately
In words: Luminescence Cell-Based Dose Response HTS to Identify Activators of Luciferase Translation or Activity in H4 […] Cells. [Related pubchem assays: 1829 (Project Summary), 1814 (Primary HTS)].
Settings: not given
The class given is functional.
As to `COCc1nc(-c2ccc(-c3ccc(C)cc3)nc2OC)no1`, the EC50 is 76 µM (active). The same measure, in the same setting: to `C/C(=N\NC(=O)c1c(Cl)cnn1C)c1ccc(NC(=O)c2ccc(Br)o2)cc1` belongs 6.56 µM (active).
